Literature values in patent US8173570B2, “Hydroconversion processes employing multi-metallic catalysts and method for making thereof” (Chevron U.S.A. Inc., priority 2007, dated 2012).

Test system: rats
Details: acute toxicity, as single oral dose to rats (definition b56-b57)

In the case of `O=CC(=O)O` [glyoxylic], the LD50 is given as 3000 mg/kg.
